Key:
hiPSC-VSMCs [1] = test: Contractility of hiPSC-VSMCs in response to vasoactive agents; format: cell-based, human; conditions: hiPSC-VSMCs treated with agent; FIG. 6B
Description: (§1) A significant difference also between cells treated with carbachol and potassium chloride was observed (FIG. 6B).

hiPSC-VSMCs [2] = test: Intracellular calcium flux (Fluo4 fluorescence) in hiPSC-VSMCs; format: cell-based, human; conditions: FIG. 6A
Description: as §1

| Compound | contractility (hiPSC-VSMCs [1]) | Fluo4 fluorescence (intracellular calcium flux) (hiPSC-VSMCs [2]) |
| --- | --- | --- |
| [Cl-].[K+] [KCl, potassium chloride] | significantly increased contractility |  |
| C[N+](C)(C)CCOC(N)=O [carbachol] | significantly increased contractility | dramatic increase |
